Source: patent US20260306640A1, “TECHNOLOGIES TARGETING CELL STATES” (Auron Therapeutics, Inc., priority 2023, published 2026)

Assays:
KAT2B = KAT2B (Homo sapiens, UniProt Q92831); assay: KAT2B degradation, Western Blot (Jess), NCI-H1048 cells; type: cell-based; set-up: degrader, Western blot (Jess); settings: NCI-H1048 cells, KAT2B, 24 h, Western Blot, vs DMSO; read-out: KAT2B NCI-H1048 DC50
How it was run: (§1)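 NCI-H1048 cells grown in HITES medium with 5% FBS were treated with compounds for 24 h at 37° C. Lysates were run by capillary Western (Jess) with KAT2A or KAT2B antibodies and chemiluminescent detection. DC50 derived from percent protein reduction versus DMSO control.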

KAT2A = KAT2A (Homo sapiens, UniProt Q92830); assay: KAT2A degradation, Western Blot (Jess), NCI-H1048 cells; type: cell-based; set-up: degrader, Western blot (Jess); settings: NCI-H1048 cells, KAT2A, 24 h, Western Blot, vs DMSO; read-out: KAT2A NCI-H1048 DC50
Chain of KAT2A (Q92830 whole entry): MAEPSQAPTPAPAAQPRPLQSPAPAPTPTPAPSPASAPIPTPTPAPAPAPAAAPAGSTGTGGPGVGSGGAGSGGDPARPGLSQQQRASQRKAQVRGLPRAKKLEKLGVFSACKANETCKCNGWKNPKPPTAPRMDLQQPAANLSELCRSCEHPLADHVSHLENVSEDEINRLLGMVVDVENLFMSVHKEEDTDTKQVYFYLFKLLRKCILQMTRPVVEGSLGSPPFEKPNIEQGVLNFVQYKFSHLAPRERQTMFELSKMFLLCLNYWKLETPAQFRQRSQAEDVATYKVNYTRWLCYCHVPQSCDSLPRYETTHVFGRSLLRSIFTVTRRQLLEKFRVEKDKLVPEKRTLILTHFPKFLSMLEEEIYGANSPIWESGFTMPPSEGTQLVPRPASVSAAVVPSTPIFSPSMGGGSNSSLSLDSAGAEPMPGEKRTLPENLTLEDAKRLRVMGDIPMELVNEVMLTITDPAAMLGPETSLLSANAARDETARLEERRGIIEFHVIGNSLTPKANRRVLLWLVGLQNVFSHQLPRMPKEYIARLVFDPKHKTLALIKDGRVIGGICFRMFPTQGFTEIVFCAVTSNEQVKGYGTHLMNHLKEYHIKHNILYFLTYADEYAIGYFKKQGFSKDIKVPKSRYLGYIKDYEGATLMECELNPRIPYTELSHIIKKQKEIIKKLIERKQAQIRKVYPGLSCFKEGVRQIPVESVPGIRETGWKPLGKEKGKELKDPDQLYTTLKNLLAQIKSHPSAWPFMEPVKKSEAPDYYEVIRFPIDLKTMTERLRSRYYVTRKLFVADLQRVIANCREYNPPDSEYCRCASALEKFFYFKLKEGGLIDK
How it was run: as §1

Chain of KAT2B (Q92831 whole entry): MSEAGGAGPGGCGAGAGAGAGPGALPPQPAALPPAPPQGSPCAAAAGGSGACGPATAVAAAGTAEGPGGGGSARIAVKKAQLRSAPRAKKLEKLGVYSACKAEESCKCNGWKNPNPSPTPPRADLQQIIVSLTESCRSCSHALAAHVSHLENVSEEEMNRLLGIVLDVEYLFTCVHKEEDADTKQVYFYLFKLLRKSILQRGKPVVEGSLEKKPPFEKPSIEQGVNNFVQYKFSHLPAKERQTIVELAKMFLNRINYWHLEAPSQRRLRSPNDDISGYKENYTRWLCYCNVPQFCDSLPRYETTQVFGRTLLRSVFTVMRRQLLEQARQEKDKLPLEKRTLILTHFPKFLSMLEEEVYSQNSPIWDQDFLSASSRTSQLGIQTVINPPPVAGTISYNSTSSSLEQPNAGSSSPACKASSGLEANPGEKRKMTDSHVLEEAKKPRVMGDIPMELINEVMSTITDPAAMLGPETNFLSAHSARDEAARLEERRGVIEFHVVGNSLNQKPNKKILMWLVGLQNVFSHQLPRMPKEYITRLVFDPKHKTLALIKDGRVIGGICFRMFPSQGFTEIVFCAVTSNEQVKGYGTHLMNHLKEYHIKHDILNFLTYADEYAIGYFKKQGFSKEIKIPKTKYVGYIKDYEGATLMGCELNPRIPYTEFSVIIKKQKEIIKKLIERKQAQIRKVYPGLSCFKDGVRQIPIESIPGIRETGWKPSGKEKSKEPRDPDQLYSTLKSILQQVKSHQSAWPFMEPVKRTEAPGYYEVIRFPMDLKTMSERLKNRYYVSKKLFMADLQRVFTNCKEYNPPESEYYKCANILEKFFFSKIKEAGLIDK

| Structure (SMILES) | DC50 (KAT2B) | DC50 (KAT2A) |
| --- | --- | --- |
| CN1C[C@H](Nc2cnn(C)c(=O)c2Cl)C[C@H](c2ccc(CN3CCN(c4cccc(C5CCC(=O)NC5=O)c4)CC3)cc2)C1 (some centres unmarked) [Compound 361] | 1 to 30 nM | < 1 nM |
| Cc1cc(N2CCC3(CCN(C(=O)c4ccc([C@H]5C[C@@H](Nc6cnn(C)c(=O)c6Br)CN(C)C5)cc4)CC3)CC2)ccc1OC1CCC(=O)NC1=O (some centres unmarked) [Compound 364] | > 30 nM | < 1 nM |
| CN1C[C@H](Nc2cnn(C)c(=O)c2Br)C[C@H](c2ccc(C(=O)N3CCC4(CC3)CCN(c3ccc(OC5CCC(=O)NC5=O)cn3)CC4)cc2)C1 (some centres unmarked) [Compound 366] | 1 to 30 nM | < 1 nM |
| CN1C[C@H](Nc2cnn(C)c(=O)c2Cl)C[C@H](c2ccc(C(=O)N3CCC4(CC3)CCN(c3ccc(OC5CCC(=O)NC5=O)cn3)CC4)cc2)C1 (some centres unmarked) [Compound 367] | > 30 nM | < 1 nM |
| CN1C[C@H](Nc2cnn(C)c(=O)c2Cl)C[C@H](c2ccc(CN3C4CC3CN(c3cccc(C5CCC(=O)NC5=O)c3)C4)cc2)C1 (some centres unmarked) [Compound 369] | > 30 nM | 1 to 30 nM |
| CN1C[C@H](Nc2cnn(C)c(=O)c2Cl)C[C@H](c2ccc(C(=O)N3CCC4(CC3)CCN(c3ccc(NC5CCC(=O)NC5=O)c(F)c3)CC4)cc2)C1 (some centres unmarked) [Compound 372] | 1 to 30 nM | < 1 nM |
| CN1C[C@H](Nc2cnn(C)c(=O)c2Br)C[C@H](c2ccc(C(=O)N3CCC4(CC3)CCN(c3ccc(NC5CCC(=O)NC5=O)c(F)c3)CC4)cc2)C1 (some centres unmarked) [Compound 373] | 1 to 30 nM | < 1 nM |
| CN1C[C@H](Nc2cnn(C)c(=O)c2Cl)C[C@H](c2ccc(C(=O)N3CCC4(CC3)CCN(c3ccc5c(N6CCC(=O)NC6=O)nccc5c3)CC4)cc2)C1 [Compound 376] | > 30 nM | > 30 nM |
| CN1C[C@H](Nc2cnn(C)c(=O)c2Br)C[C@H](c2ccc(C(=O)N3CCC(c4ccc5c(C6CCC(=O)NC6=O)nccc5c4)CC3)cc2)C1 (some centres unmarked) [Compound 377] | > 30 nM | < 1 nM |
| Cc1c(N[C@@H]2C[C@H](c3ccc(C(=O)N4CCC(c5ccc6c(C7CCC(=O)NC7=O)cncc6c5)CC4)cc3)CN(C)C2)cnn(C)c1=O (some centres unmarked) [Compound 378] | > 30 nM | 1 to 30 nM |
| CN1C[C@H](Nc2cnn(C)c(=O)c2Cl)C[C@H](c2ccc(C(=O)N3CCC(c4ccc5c(C6CCC(=O)NC6=O)nccc5c4)CC3)cc2)C1 (some centres unmarked) [Compound 379] | > 30 nM | < 1 nM |
| CN1C[C@H](Nc2cnn(C)c(=O)c2Cl)C[C@H](c2ccc(CN3CCN(c4ccc5c(C6CCC(=O)NC6=O)cncc5c4)CC3)cc2)C1 (some centres unmarked) [Compound 381] | < 1 nM | 1 to 30 nM |
| CN1C[C@H](Nc2cnn(C)c(=O)c2Br)C[C@H](c2ccc(CN3CCN(c4ccc5nc(C6CCC(=O)NC6=O)ccc5c4)CC3)cc2)C1 (some centres unmarked) [Compound 385] | 1 to 30 nM | 1 to 30 nM |
| CN1C[C@H](Nc2cnn(C)c(=O)c2Br)C[C@H](c2ccc(CN3CCC(c4cccc(C5CCC(=O)NC5=O)c4)C(F)(F)C3)cc2)C1 (some centres unmarked) [Compound 386] | > 30 nM | 1 to 30 nM |
| CN1C[C@H](Nc2cnn(C)c(=O)c2Br)C[C@H](c2ccc(CN3CCC(c4ccc5c(C6CCC(=O)NC6=O)cncc5c4)C(F)(F)C3)cc2)C1 (some centres unmarked) [Compound 388] | < 1 nM | < 1 nM |
| CN1C[C@H](Nc2cnn(C)c(=O)c2Cl)C[C@H](c2ccc(CN3CCC(c4ccc5c(C6CCC(=O)NC6=O)cncc5c4)C(F)(F)C3)cc2)C1 (some centres unmarked) [Compound 389] | < 1 nM | < 1 nM |
| CN1C[C@H](Nc2cnn(C)c(=O)c2Cl)C[C@H](c2ccc(CN3CCC(c4cccc(C5CCC(=O)NC5=O)c4)C(F)(F)C3)cc2)C1 (some centres unmarked) [Compound 390] | > 30 nM | 1 to 30 nM |
| CN1C[C@H](Nc2cnn(C)c(=O)c2Br)C[C@H](c2ccc(C(=O)N3CCC4(CC3)CCN(c3ccc(N5CCC(=O)NC5=O)c(F)c3)CC4)cc2)C1 [Compound 397] | < 1 nM | < 1 nM |
| CN1C[C@H](Nc2cnn(C)c(=O)c2Br)C[C@H](c2ccc(C(=O)N3CCC4(CC3)CCN(c3ccc(C(=O)NC5CCC(=O)NC5=O)nc3)CC4)cc2)C1 (some centres unmarked) [Compound 402] | < 1 nM | < 1 nM |
| CN1C[C@H](Nc2cnn(C)c(=O)c2Cl)C[C@H](c2ccc(C(=O)N3CCC4(CC3)CCN(c3ccc(C(=O)NC5CCC(=O)NC5=O)nc3)CC4)cc2)C1 (some centres unmarked) [Compound 403] | 1 to 30 nM | < 1 nM |
| CN1C[C@H](Nc2cnn(C)c(=O)c2Cl)C[C@H](c2ccc(C(=O)N3CCC4(CC3)CCN(c3ccc(C(=O)NC5CCC(=O)NC5=O)c(F)c3)CC4)cc2)C1 (some centres unmarked) [Compound 405] | 1 to 30 nM | < 1 nM |
| Cc1ncsc1-c1ccc(CNC(=O)[C@@H]2C[C@@H](O)CN2C(=O)[C@@H](NC(=O)CCCCCCCCNC(=O)c2ccc([C@H]3C[C@@H](Nc4cnn(C)c(=O)c4Br)CN(C)C3)cc2)C(C)(C)C)cc1 [Compound 420] | > 30 nM | > 30 nM |
| Cc1ncsc1-c1ccc(CNC(=O)[C@@H]2C[C@@H](O)CN2C(=O)[C@@H](NC(=O)CCCCCNC(=O)c2ccc([C@H]3C[C@@H](Nc4cnn(C)c(=O)c4Br)CN(C)C3)cc2)C(C)(C)C)cc1 [Compound 421] | > 30 nM | > 30 nM |
| Cc1ncsc1-c1ccc(CNC(=O)[C@@H]2C[C@@H](O)CN2C(=O)[C@@H](NC(=O)CCCCNC(=O)c2ccc([C@H]3C[C@@H](Nc4cnn(C)c(=O)c4Br)CN(C)C3)cc2)C(C)(C)C)cc1 [Compound 422] | > 30 nM | > 30 nM |

Further lines, results first:

| DC50 (KAT2B) | DC50 (KAT2A) | Structure (SMILES) |
| --- | --- | --- |
| > 30 nM | > 30 nM | Cc1c(N[C@@H]2C[C@H](c3ccc(CN4CCN(c5cc(C6CCC(=O)NC6=O)c(F)cc5F)CC4)cc3)CN(C)C2)cnn(C)c1=O (some centres unmarked) [Compound 360] |
| < 1 nM | < 1 nM | Cc1cc(N2CCC3(CCN(C(=O)c4ccc([C@H]5C[C@@H](Nc6cnn(C)c(=O)c6Cl)CN(C)C5)cc4)CC3)CC2)ccc1OC1CCC(=O)NC1=O (some centres unmarked) [Compound 365] |
| > 30 nM | 1 to 30 nM | CN1CC(Nc2cnn(C)c(=O)c2Cl)CC(c2ccc(CN3CCN(c4cccc(OC5CCC(=O)NC5=O)c4)CC3)cc2)C1 (centres unmarked) [Compound 368] |
| > 30 nM | < 1 nM | CN1C[C@H](Nc2cnn(C)c(=O)c2Br)C[C@H](c2ccc(C(=O)N3CCC4(CC3)CCN(c3ccc5c(N6CCC(=O)NC6=O)nccc5c3)CC4)cc2)C1 [Compound 374] |
| < 1 nM | < 1 nM | CN1C[C@H](Nc2cnn(C)c(=O)c2Br)C[C@H](c2ccc(CN3CCN(c4ccc5c(C6CCC(=O)NC6=O)cncc5c4)CC3)cc2)C1 (some centres unmarked) [Compound 380] |
| < 1 nM | < 1 nM | CN1C[C@H](Nc2cnn(C)c(=O)c2Br)C[C@H](c2ccc(CN3CCN(c4ccc5c(C6CCC(=O)NC6=O)nccc5c4)CC3)cc2)C1 (some centres unmarked) [Compound 382] |
| 1 to 30 nM | < 1 nM | CN1C[C@H](Nc2cnn(C)c(=O)c2Cl)C[C@H](c2ccc(CN3CCN(c4ccc5c(C6CCC(=O)NC6=O)nccc5c4)CC3)cc2)C1 (some centres unmarked) [Compound 383] |
| < 1 nM | < 1 nM | CN1C[C@H](Nc2cnn(C)c(=O)c2Br)C[C@H](c2ccc(C(=O)N3CCN(c4ccc5nc(C6CCC(=O)NC6=O)ccc5c4)CC3)cc2)C1 (some centres unmarked) [Compound 384] |
| > 30 nM | < 1 nM | Cc1c(N[C@@H]2C[C@H](c3ccc(CN4CCC(c5cccc(C6CCC(=O)NC6=O)c5)C(F)(F)C4)cc3)CN(C)C2)cnn(C)c1=O (some centres unmarked) [Compound 387] |
| < 1 nM | > 30 nM | CN1C[C@H](Nc2cnn(C)c(=O)c2Br)C[C@H](c2ccc(CN3CCC(c4ccc5c(c4)C(=O)N(C4CCC(=O)NC4=O)C5=O)C(F)(F)C3)cc2)C1 (some centres unmarked) [Compound 391] |
| < 1 nM | < 1 nM | Cc1cc(N2CCC3(CCN(C(=O)c4ccc([C@H]5C[C@@H](Nc6cnn(C)c(=O)c6Br)CN(C)C5)cc4)CC3)CC2)ccc1N1CCC(=O)NC1=O [Compound 395] |
| < 1 nM | < 1 nM | Cc1cc(N2CCC3(CCN(C(=O)c4ccc([C@H]5C[C@@H](Nc6cnn(C)c(=O)c6Cl)CN(C)C5)cc4)CC3)CC2)ccc1N1CCC(=O)NC1=O [Compound 396] |
| < 1 nM | < 1 nM | CN1C[C@H](Nc2cnn(C)c(=O)c2Cl)C[C@H](c2ccc(C(=O)N3CCC4(CC3)CCN(c3ccc(N5CCC(=O)NC5=O)c(F)c3)CC4)cc2)C1 [Compound 398] |
| > 30 nM | > 30 nM | Cc1cc(N2CCC3(CCN(C(=O)c4ccc([C@H]5C[C@@H](Nc6cnn(C)c(=O)c6Cl)CN(C)C5)cc4)CC3)CC2)cc(C)c1N1CCC(=O)NC1=O [Compound 399] |
| > 30 nM | < 1 nM | CN1C[C@H](Nc2cnn(C)c(=O)c2Cl)C[C@H](c2ccc(N3CCC4(CC3)CCN(c3cccc(CN5CCC(=O)NC5=O)c3)CC4)cc2)C1 [Compound 401] |
| 1 to 30 nM | < 1 nM | CN1C[C@H](Nc2cnn(C)c(=O)c2Br)C[C@H](c2ccc(C(=O)N3CCC4(CC3)CCN(c3cnc(C(=O)NC5CCC(=O)NC5=O)c(F)c3)CC4)cc2)C1 (some centres unmarked) [Compound 404] |
| > 30 nM | > 30 nM | Cc1ncsc1-c1ccc(CNC(=O)[C@@H]2C[C@@H](O)CN2C(=O)[C@@H](NC(=O)CN2CCN(C3CCN(C(=O)c4ccc([C@H]5C[C@@H](Nc6cnn(C)c(=O)c6Br)CN(C)C5)cc4)CC3)CC2)C(C)(C)C)cc1 [Compound 408] |
| > 30 nM | 1 to 30 nM | Cc1ncsc1-c1ccc(CNC(=O)[C@@H]2C[C@@H](O)CN2C(=O)[C@@H](NC(=O)CN2CCC(N3CCN(C(=O)c4ccc([C@H]5C[C@@H](Nc6cnn(C)c(=O)c6Br)CN(C)C5)cc4)CC3)CC2)C(C)(C)C)cc1 [Compound 409] |
| > 30 nM | > 30 nM | Cc1ncsc1-c1ccc(CNC(=O)[C@@H]2C[C@@H](O)CN2C(=O)[C@@H](NC(=O)CC2CCN(C(=O)c3ccc([C@H]4C[C@@H](Nc5cnn(C)c(=O)c5Br)CN(C)C4)cc3)CC2)C(C)(C)C)cc1 [Compound 411] |
